Source: article PMC5601360 (Journal of Medicinal Chemistry, 2017)
Where two headings read alike, the source gives them in different places.

Columns and labels:
CD1 mice = conditions: mouse, in vivo, sc
[1] = tested on: acetic acid-induced writhing in CD1 mice; conditions: mouse, in vivo, sc; cited from earlier work
mice = conditions: icv, ref 9d; cited from earlier work
human DOP receptor [2] = target: T1, human DOP receptor (Homo sapiens, UniProt P41143); conditions: CHO-hDOP membranes; ref 9a; read-out: receptor binding affinity Ki DOP; cited from earlier work
T1 construct: expressed in transfected cells; host or cells: CHO-hDOP cells (gift of Dr. Lawrence Toll, SRI International)

[3] = tested on: acetic acid-induced writhing in CD1 mice; test: Acetic acid-induced writhing assay in mice after sc administration; format: in vivo; conditions: for ED50: Mus musculus, 0.5 h, CD1 mice, inhibition of writhing at 30 min after drug administration, read-out: antinociceptive ED50 (95% CI)
Procedure: Male CD1 mice (30–35 g, 6–8 weeks old) were obtained from the Center of Biomodels and Experimental Medicine (CBEM) (Innsbruck, Austria) or Charles River (Sulzfeld, Germany). Mice were group-housed in a temperature controlled room with a 12 h light/dark cycle and with free access to food and water. All animal studies were conducted in accordance with ethical guidelines and animal welfare standards according to Austrian regulations for animal research and were approved by the Committee of Animal Care of the Austrian Federal Ministry of Science and Research. Solutions of test compounds were prepared as 1% DMSO solutions in sterile physiological 0.9% saline and further diluted to working doses in saline solution. Test compounds or vehicle (saline) were administered by sc route in a volume of 10 μL/1 g of body weight. All doses are expressed in terms of salts. Separate groups of mice received the respective dose of compound, and individual mice were only used once for behavioral testing. Each experimental group included at least five animals.
Writhing was induced in male CD1 mice by intraperitoneal (ip) injection of a 0.6% acetic acid aqueous solution as described previously.[9a] Groups of mice were administered sc different doses of test compound or saline (control), and then 5 min prior to testing (25 min after drug or saline) each animal received an ip injection of acetic acid solution. Each mouse was placed in individual transparent Plexiglas chambers, and the number of writhes was counted during a 10 min observation period. […] For the antagonism studies, nor-BNI (20 mg/kg) was sc administered 24 h before 2 (5 mg/kg) and 17 (10 mg/kg) was sc administered 15 min before U50,488 (2 mg/kg).

human KOP receptor [4] = target: T2, human KOP receptor (Homo sapiens, UniProt P41145); conditions: ref 9a, cited from earlier work
T2 construct: expressed in transfected cells; host or cells: CHO-hKOP cells (gift of Dr. Lawrence Toll, SRI International)

human KOP receptor [5] = target: T2, human KOP receptor; conditions: percentage stimulation relative to the KOP full agonist U69,593; ref 9a; cited from earlier work
human DOP receptor [6] = target: T1, human DOP receptor; test: Competition binding assay, CHO-hDOP cell membranes, [3H]diprenorphine; conditions: mean ± SEM, read-out: receptor binding affinity Ki DOP
Procedure: (§1) CHO cells stably expressing recombinant human KOP, MOP, or DOP receptors (CHO-hKOP, CHO-hMOP, and CHO-hDOP cell lines) were kindly provided by Dr. Lawrence Toll (SRI International, Menlo Park, CA). The CHO-hKOP cell line was maintained in Dulbecco’s Minimal Essential Medium (DMEM) supplemented with fetal bovine serum (FBS, 10%), penicillin/streptomycin (0.1%), L-glutamine (2 mM), and geneticin (400 μg/mL). The CHO-hMOP and CHO-hDOP cell lines were maintained in DMEM/Ham’s F-12 medium supplemented with FBS (10%), penicillin/streptomycin (0.1%), L-glutamine (2 mM), and geneticin (400 μg/mL). Cell cultures were maintained at 37 °C in 5% CO2 humidified air.
(§2) . Nonspecific binding was determined using 1–10 μM of the unlabeled counterpart of each radioligand. Assays were performed in 50 mM Tris-HCl buffer (pH 7.4) in a final volume of 1 mL. Cell membranes (15–20 μg) were incubated with the appropriate radioligand and various concentrations of test compound for 60 min at 25 °C. After incubation, reactions were terminated by rapid filtration through Whatman glass fiber filters. Filters were washed three times with 5 mL of ice-cold 50 mM Tris-HCl buffer (pH 7.4) using a Brandel M24R cell harvester (Gaithersburg, MD). Radioactivity retained on the filters was counted by liquid scintillation counting using a Beckman Coulter LS6500 (Beckman Coulter Inc., Fullerton, CA). All binding experiments were performed in duplicate and repeated at least three times. The inhibitory constant Ki values (in nM) were calculated from the competition binding curves by nonlinear regression analysis and the Cheng–Prusoff equation.[16]

human KOP receptor [7] = target: T2, human KOP receptor; test: [35S]GTPγS binding assay using CHO-hKOP cell membranes; format: biochemical
Procedure: The binding of [^35S]GTPγS to membranes from CHO cells stably expressing human KOP receptors (CHO-hKOP cells) was conducted according to the published procedures.[9a],[9b] CHO-hKOP cell membranes were prepared in buffer A (20 mM HEPES, 10 mM MgCl2, and 100 mM NaCl, pH 7.4). Cell membranes (8–15 μg) in buffer A were incubated with 0.05 nM [^35S]GTPγS, 10 μM GDP, and various concentrations of test compound in a final volume of 1 mL for 60 min at 25 °C. Nonspecific binding was determined using 10 μM GTPγS, and the basal binding was determined in the absence of test ligand. Samples are filtered over glass fiber filters and counted as described for binding assays. […] To determine the KOP antagonist activity, a concentration–response curve for U69,593 was obtained by assessing the [^35S]GTPγS binding to CHO-hKOP cell membranes in the presence or absence of test compound, as previously described.[9b] For each compound, the Schild analysis was conducted, utilizing a full agonist–dose response curve in the presence of at least two concentrations of the antagonist. The equilibrium dissociation constant (Ke) was calculated from the equation Ke = [a]/(DR – 1), where “a” is the concentration of antagonist and DR the virtual shift of the agonist concentration–response curve to the right in the presence of a given concentration of antagonist. All experiments were performed in duplicate and repeated at least three times.

human MOP receptor = target: T3, human MOP receptor (Homo sapiens, UniProt P35372); test: Competition binding assay, CHO-hMOP cell membranes, [3H]DAMGO; conditions: mean ± SEM, read-out: receptor binding affinity Ki MOP
T3 construct: expressed in transfected cells; host or cells: CHO-hMOP cells (gift of Dr. Lawrence Toll, SRI International)
Procedure: as §1, §2

human KOP receptor [8] = target: T2, human KOP receptor; test: Competition binding assay, CHO-hKOP cell membranes, [3H]U69,593; conditions: CHO-hKOP membranes; mean ± SEM; read-out: receptor binding affinity Ki KOP
Procedure: as §1
as §2, with “Nonspecific” for “. Nonspecific”

| Structure (SMILES) | effect on rotarod performance (evoked locomotor activity) (CD1 mice) | antinociceptive ED50 (95% CI) [1] | antinociceptive potency compared to U50,488 (mice) | Ki (human DOP receptor [2]) | ED50 ([3]; sc) | antagonism by nor-BNI of the antinociceptive effect ([3]; nor-BNI 20 mg/kg sc 24 h before agonist (2: 5 mg/kg; 3: 1 mg/kg; 4: […] sc)) | inhibition of the writhing response ([3]; sc, different doses, 30 min after drug administration) | selectivity DOP/KOP (human KOP receptor [4]; Ki ratio DOP/KOP) | selectivity MOP/KOP (human KOP receptor [4]; Ki ratio MOP/KOP) | [35S]GTPγS KOP % stim (human KOP receptor [5]) | effect on rotarod latencies (motor behavior) (CD1 mice; 7.5 mg/kg) | Ki (human DOP receptor [6]) | EC50 (human KOP receptor [7]; CHO-hKOP membranes, mean ± SEM) | Emax (human KOP receptor [7]; percentage stimulation relative to the KOP full agonist U69,593, read-out: [35S]GTPγS KOP % stim) | Ki (human MOP receptor) | Ki (human KOP receptor [8]) |
| --- | --- | --- | --- | --- | --- | --- | --- | --- | --- | --- | --- | --- | --- | --- | --- | --- |
| Oc1cccc(CCN(CCc2ccccc2)CC2CCC2)c1 [Compound 1] | did not affect the evoked locomotor activity | 1.91 (1.02–3.58) mg/kg | 2 fold | > 10000 nM | – | – | – | – | – | – | – | – | – | – | – | – |
| Oc1cccc(CCN(CCc2ccccc2)CC2CC2)c1 [Compound 2] | did not affect the evoked locomotor activity | – | equipotent | > 10000 nM | 3.23 mg/kg | blocked by nor-BNI | Dose-dependent inhibition of the writhing response | >1700 | 140 | 53.4 ± 8.1% | – | – | – | – | – | – |
| Cl.Oc1cccc(CCN(CCc2ccccc2)CC2CCCCC2)c1F [Compound 19, 3-[2-[(Cyclohexylmethyl)(phenethyl)amino]ethyl]-2-fluorophenol Hydrochloride] | – | – | – | – | 1.33 mg/kg | – | – | – | – | – | no significant alterations in rotarod latencies | > 10000 nM | 2.77 ± 0.29 nM | ≥ 80% | 851 ± 292 nM | 0.04 ± 0.006 nM |
